According to paper PMC8658016, “Identification of New Compounds with Anticonvulsant and Antinociceptive Properties in a Group of 3-substituted (2,5-dioxo-pyrrolidin-1-yl)(phenyl)-Acetamides” (International Journal of Molecular Sciences, 2021):
Where two headings read alike, the source gives them in different places.

Key:
in vivo = details: male, CD-1, mouse, ip
mice [1] = test: Maximal electroshock seizure (MES) test; assay type: in vivo, mouse; details: mice i.p.; for ED50: Mus musculus, ip, 95% confidence interval in parentheses; for MES screening: number of mice protected / number of mice tested / protection in the MES test: 100 mg/kg, 0.5 h
mice [2] = test: Subcutaneous pentylenetetrazole (scPTZ) seizure test; assay type: in vivo, mouse; details: mice i.p.; for scPTZ screening: number of mice protected / number of mice tested / protection in the scPTZ test: 100 mg/kg, 0.5 h; for ED50: Mus musculus, ip, 95% confidence interval in parentheses
mice [3] = test: Psychomotor 6 Hz (32 mA) seizure test; assay type: in vivo, mouse; details: mice i.p.; for ED50: Mus musculus, ip, 95% confidence interval in parentheses; for 6 Hz (32 mA) screening: number of mice protected / number of mice tested / protection in the 6 Hz (32 mA) test: 100 mg/kg, 0.5 h
mice [4] = tested on: mice; set-up: method as in PMID 32929733; details: mice i.p.; cited from earlier work
mice [5] = tested on: mice; set-up: method as in PMID 28934547; details: active only in a very high dose; cited from earlier work
mice [6] = details: mice i.p.; cited from earlier work
mice [7] = details: mice i.p.; cited from earlier work; remark: listed apart in the source
mice [8] = details: mice i.p.; cited from earlier work; remark: listed apart in the source
mice [9] = details: mice i.p., cited from earlier work
[10] = tested on: TTX-sensitive Na+ channel; test: Radioligand binding, TTX-sensitive Na+ channel; details: rat cerebral cortex
[11] = tested on: Cav1.2 channel (dihydropyridine site, antagonist radioligand); test: Radioligand binding, Cav1.2 channel (dihydropyridine site); details: rat cerebral cortex
TRPV1 (VR1) (h) = molecular target: T1, TRPV1 (VR1) (h) (Homo sapiens, UniProt Q8NER1); test: TRPV1 (VR1) functional assay, antagonist effect; assay type: cell-based; details: HEK293, human recombinant HEK-293 cells, read-out: % Inhibition of Control Agonist Response, TRPV1 (VR1) (h) (antagonist effect)
T1 construct: Cerep Laboratories / Eurofins Panlabs (contract assay)
T1 sequence (Q8NER1 whole entry): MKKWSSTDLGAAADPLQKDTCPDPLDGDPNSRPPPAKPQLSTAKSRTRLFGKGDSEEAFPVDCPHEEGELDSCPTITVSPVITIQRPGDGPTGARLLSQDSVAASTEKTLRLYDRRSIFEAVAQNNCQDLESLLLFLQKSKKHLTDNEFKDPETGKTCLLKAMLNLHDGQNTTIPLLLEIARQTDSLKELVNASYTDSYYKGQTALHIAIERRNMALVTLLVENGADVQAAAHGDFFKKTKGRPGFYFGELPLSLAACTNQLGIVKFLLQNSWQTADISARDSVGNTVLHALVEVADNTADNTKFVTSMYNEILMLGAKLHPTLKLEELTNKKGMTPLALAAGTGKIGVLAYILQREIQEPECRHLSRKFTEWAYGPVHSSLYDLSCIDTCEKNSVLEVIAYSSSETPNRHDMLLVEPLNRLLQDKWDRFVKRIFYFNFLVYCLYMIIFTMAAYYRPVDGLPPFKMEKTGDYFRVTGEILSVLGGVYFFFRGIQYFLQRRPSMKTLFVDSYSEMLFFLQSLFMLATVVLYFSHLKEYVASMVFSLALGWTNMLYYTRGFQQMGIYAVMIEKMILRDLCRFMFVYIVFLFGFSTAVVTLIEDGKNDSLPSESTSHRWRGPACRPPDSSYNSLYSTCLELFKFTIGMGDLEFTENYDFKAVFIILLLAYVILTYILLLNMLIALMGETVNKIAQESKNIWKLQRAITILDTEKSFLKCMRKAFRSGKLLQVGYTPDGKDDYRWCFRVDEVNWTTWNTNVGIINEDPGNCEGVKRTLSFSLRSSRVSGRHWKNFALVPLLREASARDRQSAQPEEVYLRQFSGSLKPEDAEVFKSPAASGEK

[12] = molecular target: Cav1.2 (h) calcium ion channel (Homo sapiens, UniProt Q13936); test: Cav1.2 calcium ion channel cell based antagonist calcium flux assay; details: HEK293, read-out: % Inhibition of Control Agonist Response, Cav1.2 (h) calcium ion channel cell based antagonist calcium flux assay
Cav1.2 (h) calcium ion channel, sequence (Q13936 whole entry): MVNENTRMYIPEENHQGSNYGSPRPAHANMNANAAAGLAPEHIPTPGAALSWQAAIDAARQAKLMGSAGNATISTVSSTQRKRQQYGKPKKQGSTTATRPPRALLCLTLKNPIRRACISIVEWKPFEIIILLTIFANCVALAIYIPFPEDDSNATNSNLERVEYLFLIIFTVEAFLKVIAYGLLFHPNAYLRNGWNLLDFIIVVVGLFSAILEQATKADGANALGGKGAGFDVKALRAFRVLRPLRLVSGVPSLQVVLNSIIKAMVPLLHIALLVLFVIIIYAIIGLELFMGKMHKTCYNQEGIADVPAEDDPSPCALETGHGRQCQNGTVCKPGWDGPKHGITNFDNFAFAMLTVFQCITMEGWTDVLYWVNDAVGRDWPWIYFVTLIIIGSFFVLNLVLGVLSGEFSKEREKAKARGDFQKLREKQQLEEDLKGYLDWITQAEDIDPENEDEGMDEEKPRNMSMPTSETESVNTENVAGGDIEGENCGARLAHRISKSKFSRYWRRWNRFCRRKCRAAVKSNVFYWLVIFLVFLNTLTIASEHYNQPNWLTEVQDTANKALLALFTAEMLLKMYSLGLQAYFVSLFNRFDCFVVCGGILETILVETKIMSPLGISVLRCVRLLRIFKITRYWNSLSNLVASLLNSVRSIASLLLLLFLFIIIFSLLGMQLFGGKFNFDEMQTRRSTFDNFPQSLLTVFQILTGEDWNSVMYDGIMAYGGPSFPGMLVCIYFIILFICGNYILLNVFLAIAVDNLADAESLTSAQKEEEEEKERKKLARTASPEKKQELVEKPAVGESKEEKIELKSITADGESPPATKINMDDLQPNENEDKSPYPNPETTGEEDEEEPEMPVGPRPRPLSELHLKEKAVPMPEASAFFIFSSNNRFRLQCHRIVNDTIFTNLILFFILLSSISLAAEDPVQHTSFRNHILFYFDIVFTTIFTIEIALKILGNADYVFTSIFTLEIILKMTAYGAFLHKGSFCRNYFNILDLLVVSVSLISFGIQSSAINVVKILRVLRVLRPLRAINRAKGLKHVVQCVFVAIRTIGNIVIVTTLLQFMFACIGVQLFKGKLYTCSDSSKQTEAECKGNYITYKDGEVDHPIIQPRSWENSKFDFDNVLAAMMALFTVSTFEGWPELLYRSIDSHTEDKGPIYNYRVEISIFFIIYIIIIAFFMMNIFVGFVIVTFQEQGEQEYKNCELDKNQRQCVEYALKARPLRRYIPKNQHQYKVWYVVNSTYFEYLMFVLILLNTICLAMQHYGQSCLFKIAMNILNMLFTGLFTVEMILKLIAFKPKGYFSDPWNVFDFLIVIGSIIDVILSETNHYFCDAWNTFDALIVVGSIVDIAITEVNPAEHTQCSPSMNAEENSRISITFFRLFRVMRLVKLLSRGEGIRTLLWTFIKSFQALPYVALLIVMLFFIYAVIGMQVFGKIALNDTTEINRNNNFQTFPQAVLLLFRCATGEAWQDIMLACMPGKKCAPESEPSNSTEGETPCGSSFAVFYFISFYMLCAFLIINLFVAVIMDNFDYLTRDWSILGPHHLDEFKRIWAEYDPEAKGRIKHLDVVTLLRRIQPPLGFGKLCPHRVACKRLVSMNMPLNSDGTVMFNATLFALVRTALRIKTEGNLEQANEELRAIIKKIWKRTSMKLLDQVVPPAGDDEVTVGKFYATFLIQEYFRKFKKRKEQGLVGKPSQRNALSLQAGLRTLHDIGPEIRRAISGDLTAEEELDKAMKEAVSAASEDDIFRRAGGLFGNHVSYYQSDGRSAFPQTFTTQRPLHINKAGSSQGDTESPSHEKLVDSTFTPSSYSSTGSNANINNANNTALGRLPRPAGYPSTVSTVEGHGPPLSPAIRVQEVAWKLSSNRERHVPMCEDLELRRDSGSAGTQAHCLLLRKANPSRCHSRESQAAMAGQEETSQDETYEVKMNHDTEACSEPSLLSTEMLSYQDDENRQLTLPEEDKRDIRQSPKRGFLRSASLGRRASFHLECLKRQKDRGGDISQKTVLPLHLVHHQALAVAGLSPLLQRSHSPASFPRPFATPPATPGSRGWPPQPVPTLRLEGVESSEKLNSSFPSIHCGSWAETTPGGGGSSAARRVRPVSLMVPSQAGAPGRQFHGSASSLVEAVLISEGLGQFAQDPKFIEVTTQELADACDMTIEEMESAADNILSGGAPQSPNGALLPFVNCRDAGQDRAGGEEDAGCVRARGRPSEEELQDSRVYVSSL
Cav1.2 (h) calcium ion channel, sequence (Q08289 whole entry partner): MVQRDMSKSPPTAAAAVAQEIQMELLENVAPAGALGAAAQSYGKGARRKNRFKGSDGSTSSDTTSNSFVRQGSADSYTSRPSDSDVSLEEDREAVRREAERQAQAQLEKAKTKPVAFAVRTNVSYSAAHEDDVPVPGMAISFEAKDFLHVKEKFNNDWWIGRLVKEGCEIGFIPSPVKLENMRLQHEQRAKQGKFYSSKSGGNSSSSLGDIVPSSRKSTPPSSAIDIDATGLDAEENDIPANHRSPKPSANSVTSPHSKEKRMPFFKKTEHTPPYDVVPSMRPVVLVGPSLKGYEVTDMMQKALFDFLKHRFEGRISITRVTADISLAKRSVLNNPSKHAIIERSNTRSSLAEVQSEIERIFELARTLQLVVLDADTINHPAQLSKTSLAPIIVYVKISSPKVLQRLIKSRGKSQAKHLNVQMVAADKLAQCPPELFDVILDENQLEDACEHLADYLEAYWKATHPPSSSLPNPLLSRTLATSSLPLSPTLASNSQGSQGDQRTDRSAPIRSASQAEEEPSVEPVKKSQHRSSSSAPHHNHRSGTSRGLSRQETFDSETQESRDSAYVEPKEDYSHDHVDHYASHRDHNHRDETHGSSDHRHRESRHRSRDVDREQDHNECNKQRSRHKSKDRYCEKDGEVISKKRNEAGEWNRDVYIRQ
Cav1.2 (h) calcium ion channel, sequence (P54289 25-956 partner limits assumed): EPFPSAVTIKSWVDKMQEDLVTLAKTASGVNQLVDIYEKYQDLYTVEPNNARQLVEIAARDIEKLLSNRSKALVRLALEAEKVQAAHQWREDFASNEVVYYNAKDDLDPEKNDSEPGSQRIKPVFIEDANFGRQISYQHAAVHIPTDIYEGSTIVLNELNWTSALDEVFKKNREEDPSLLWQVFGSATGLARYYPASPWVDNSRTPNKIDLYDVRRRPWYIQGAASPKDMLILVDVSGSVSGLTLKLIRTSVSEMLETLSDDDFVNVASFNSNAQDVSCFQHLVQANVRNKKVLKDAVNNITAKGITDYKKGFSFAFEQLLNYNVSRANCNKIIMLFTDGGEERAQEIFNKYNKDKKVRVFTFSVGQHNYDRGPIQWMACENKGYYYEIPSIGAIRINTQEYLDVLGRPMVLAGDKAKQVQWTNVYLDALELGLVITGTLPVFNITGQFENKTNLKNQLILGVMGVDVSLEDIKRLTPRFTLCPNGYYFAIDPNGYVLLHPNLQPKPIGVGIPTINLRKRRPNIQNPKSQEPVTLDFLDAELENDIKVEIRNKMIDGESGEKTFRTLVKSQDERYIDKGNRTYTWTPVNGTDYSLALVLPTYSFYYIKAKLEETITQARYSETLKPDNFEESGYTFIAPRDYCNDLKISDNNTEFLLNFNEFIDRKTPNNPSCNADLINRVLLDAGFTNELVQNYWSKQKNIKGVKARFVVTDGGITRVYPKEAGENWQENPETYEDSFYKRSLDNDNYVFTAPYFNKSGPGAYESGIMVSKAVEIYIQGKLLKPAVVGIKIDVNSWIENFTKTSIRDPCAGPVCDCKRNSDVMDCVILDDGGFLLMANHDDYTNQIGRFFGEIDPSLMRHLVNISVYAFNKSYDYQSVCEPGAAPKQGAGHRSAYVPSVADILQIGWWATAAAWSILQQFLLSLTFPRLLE
Cav1.2 (h) calcium ion channel, sequence (P54289 957-1103 partner limits assumed): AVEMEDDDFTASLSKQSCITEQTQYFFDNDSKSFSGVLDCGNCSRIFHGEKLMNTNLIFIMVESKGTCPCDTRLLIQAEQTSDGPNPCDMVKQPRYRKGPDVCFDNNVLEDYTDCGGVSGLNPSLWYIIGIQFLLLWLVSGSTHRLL

[13] = tested on: fast voltage-gated sodium currents in rat prefrontal cortex pyramidal neurons; set-up: method as in PMID 33647745; details: 1 µM; p < 0.01, n = 5; cited from earlier work

SMILES	melting point	TD50 (in vivo)	ED50 (mice [1])	MES screening: number of mice protected / number of mice tested (mice [1])	scPTZ screening: number of mice protected / number of mice tested (mice [2])	ED50 (mice [3])	6 Hz (32 mA) screening: number of mice protected / number of mice tested (mice [3])	protection in the 6 Hz (32 mA) test (mice [3])	ED50 (mice [2])	further results
CCN(CC)C1CC(=O)N(C(C(=O)N2CCN(c3cccc(C(F)(F)F)c3)CC2)c2ccccc2)C1=O.Cl (stereo not drawn) [Compound 15, 3-(Diethylamino)-1-(2-oxo-1-phenyl-2-(4-(3-(trifluoromethyl)phenyl)piperazin-1-yl)ethyl)pyrrolidine-2,5-dione hydrochloride]	142.2 to 143.1 °C	247 mg/kg	77.5 mg/kg	4/4	1/4	80.4 mg/kg	3/4	75%		protection in the MES test (mice [1]): 100%
COC[C@@H](NC(C)=O)C(=O)NCc1ccccc1 [LCS, lacosamide]										ED50 6 Hz (44 mA) (mice [4]): 6.9 (5.4–8.6) mg/kg
CNC1CC(=O)N(C(C(=O)N2CCN(c3cccc(C(F)(F)F)c3)CC2)c2ccccc2)C1=O.Cl (stereo not drawn) [Compound 13, 3-(Methylamino)-1-(2-oxo-1-phenyl-2-(4-(3-(trifluoromethyl)phenyl)piperazin-1-yl)ethyl)pyrrolidine-2,5-dione hydrochloride]	161.2 to 163.4 °C			1/4	2/4	93.6 mg/kg	2/4	50%	85.6 mg/kg	
Cl.O=C(C(c1ccccc1)N1C(=O)CC(N2CCOCC2)C1=O)N1CCN(c2cccc(C(F)(F)F)c2)CC1 (stereo not drawn) [Compound 16, 3-Morpholino-1-(2-oxo-1-phenyl-2-(4-(3-(trifluoromethyl)phenyl)piperazin-1-yl)ethyl)pyrrolidine-2,5-dione hydrochloride]	146.2 to 147.5 °C			0/4	1/4		0/4			
CCCC(CCC)C(=O)O [VPA, valproic acid, reference compound]									239 mg/kg	dose active in the capsaicin test (mice [5]): 200 mg/kg
O=C(C(c1ccccc1)N1C(=O)CCC1=O)N1CCN(c2cccc(C(F)(F)F)c2)CC1 (stereo not drawn) [I]										ED50 6 Hz (44 mA) (mice [4]): 73.2 (57.4–93.4) mg/kg; ED50 MES (mice [6]): 23.7 (18.4–31.2) mg/kg; ED50 6 Hz (32 mA) (mice [7]): 22.4 (17.4–28.8) mg/kg; ED50 scPTZ (mice [8]): 59.4 (37.5–94.1) mg/kg; TD50 (rotarod test) (mice [9]; Table 2): 195.7 (132.7–288.6) mg/kg; TD50 (rotarod test) (mice [9]): 195.7 (132.7–288.6) mg/kg
CN(C)C1CC(=O)N([C@@H](C(=O)N2CCN(c3cccc(OC(F)(F)F)c3)CC2)c2ccccc2)C1=O.Cl (stereo partly drawn) [(C1-R)-32, 3-Dimethylamino-1-((R)-2-oxo-1-phenyl-2-(4-(3-(trifluoromethoxy)phenyl)piperazin-1-yl)ethyl)pyrrolidine-2,5-dione hydrochloride]	164.8 to 165.7 °C	72 mg/kg	26.3 mg/kg	4/4	3/4	28.3 mg/kg	3/4	75%	44.9 mg/kg	protection in the MES test (mice [1]): 100%; % Inhibition of Control-Specific Binding, TTX-sensitive Na+ channel ([10]; 10 µM): 33.4%; % Inhibition of Control-Specific Binding, TTX-sensitive Na+ channel ([10]; 50 µM): 101.9%; % Inhibition of Control-Specific Binding, Cav1.2 channel (dihydropyridine site, antagonist radioligand) ([11]; 10 µM): 18.6%; % Inhibition of Control-Specific Binding, Cav1.2 channel (dihydropyridine site, antagonist radioligand) ([11]; 50 µM): 88.9%; inhibition at 10 µM (TRPV1 (VR1) (h); 10 µM): 8.5%; inhibition at 50 µM (TRPV1 (VR1) (h); 50 µM): 44.6%; protection in the scPTZ test (mice [2]): 75%; inhibition at 10 µM [12]: 38%
O=C([C@@H](c1ccccc1)N1C(=O)CCC1=O)N1CCN(c2cccc(C(F)(F)F)c2)CC1 [II]										ED50 MES (mice [6]): 36.0 (31.4–41.2) mg/kg; ED50 6 Hz (32 mA) (mice [7]): 39.2 (31.6–48.6) mg/kg; maximal sodium current amplitude normalized to control (1.0) [13]: 0.75 ± 0.04; ED50 scPTZ (mice [8]): 54.8 (43.5–69.1) mg/kg
CN(C)C1CC(=O)N([C@H](C(=O)N2CCN(c3cccc(C(F)(F)F)c3)CC2)c2ccccc2)C1=O.Cl (stereo partly drawn) [(C1-S)-31, 3-Dimethylamino-1-((S)-oxo-1-phenyl-2-(4-(3-(trifluoromethyl)phenyl)-piperazin-1-yl)ethyl)pyrrolidine-2,5-dione hydrochloride]	169.2 to 170.8 °C	188 mg/kg		1/4	1/4	> 130 mg/kg	2/4			
CCC1(C)CC(=O)NC1=O (stereo not drawn) [ETX, ethosuximide, reference compound]						> 200 mg/kg			140 mg/kg	
CN(C)C1CC(=O)N([C@@H](C(=O)N2CCN(c3cccc(C(F)(F)F)c3)CC2)c2ccccc2)C1=O.Cl (stereo partly drawn) [(C1-R)-31, 3-Dimethylamino-1-((R)-oxo-1-phenyl-2-(4-(3-(trifluoromethyl)phenyl)-piperazin-1-yl)ethyl)pyrrolidine-2,5-dione hydrochloride]	169.8 to 170.6 °C	94.9 mg/kg	57.7 mg/kg	4/4	3/4	50.9 mg/kg	3/4	75%	65.5 mg/kg	protection in the MES test (mice [1]): 100%; protection in the scPTZ test (mice [2]): 75%
CN(C)C1CC(=O)N(C(C(=O)N2CCN(c3cccc(OC(F)(F)F)c3)CC2)c2ccccc2)C1=O.Cl (stereo not drawn) [Compound 17, 3-Dimethylamino-1-(2-oxo-1-phenyl-2-(4-(3-(trifluoromethoxy)phenyl)piperazin-1-yl)ethyl)pyrrolidine-2,5-dione hydrochloride]	152.3 to 153.5 °C	69.7 mg/kg	33.3 mg/kg	3/4	3/4	28.2 mg/kg	2/4	50%	31.3 mg/kg	protection in the MES test (mice [1]): at least 75%; protection in the scPTZ test (mice [2]): 75%
CN(C)C1CC(=O)N([C@@H](C(=O)N2CCN(c3cccc(SC(F)(F)F)c3)CC2)c2ccccc2)C1=O.Cl (stereo partly drawn) [(C1-R)-33, 3-Dimethylamino-1-((R)-2-oxo-1-phenyl-2-(4-(3-((trifluoromethyl)thio)phenyl)piperazin-1-yl)ethyl)pyrrolidine-2,5-dione hydrochloride]	173.2 to 174.7 °C			1/4	1/4		1/4			
CN(C)C1CC(=O)N(C(C(=O)N2CCN(c3cccc(SC(F)(F)F)c3)CC2)c2ccccc2)C1=O.Cl (stereo not drawn) [Compound 18, 3-Dimethylamino-1-(2-oxo-1-phenyl-2-(4-(3-((trifluoromethyl)thio)phenyl)piperazin-1-yl)ethyl)pyrrolidine-2,5-dione hydrochloride]	170.1 to 171.5 °C			1/4	1/4		1/4			
CC[C@@H](C(N)=O)N1CCCC1=O [LEV, levetiracetam, reference compound]		> 500 mg/kg	> 500 mg/kg							ED50 6 Hz (44 mA) (mice [4]): >500 mg/kg; TD50 (rotarod test) (mice [9]; Table 2): >500 mg/kg
